Measured values from article PMC5866846 (Archives of Toxicology, 2017).
pEC50: −log10 of the molar value.

What was measured:
[1] = system: upcyte hepatocytes 653-03; test: Tam metabolism in upcyte hepatocytes 653-03 (parental), metabolites in culture medium; type: in vitro ADME, human; conditions: 1 µM Tam, 653-03 cells
Experimental: (§1) The medium was replaced every 2–3 days. […].
(§2) The culture medium was collected after 24, 48, 72, 96 and 144 h followed by metabolite measurements using HPLC-ESI-MS/MS.
(§3) Protein was precipitated by the addition of ACN containing 1% of acetic acid and the corresponding deuterated internal standards to the same volume of the sample followed by centrifugation at 20.000 g for 15 min at RT. […] Analytes were separated on a Zorbax Eclipse Plus C18 column (1.8 µm, 100 × 2.1 mm, Agilent technologies) and detected on a 6460 triple quadrupole mass spectrometer (Agilent technologies) in positive ESI MRM mode. Glucuronides of estrogen-like metabolites were detected separately via MS/MS-measurements in negative ESI MRM mode.
(§4) […]. […] […].

SLC22A7 gene expression = SLC22A7 gene expression in upcyte hepatocytes (Fluidigm RT-PCR); type: cell-based, human; conditions: 5 µM, 72 h, both cell strains
Source text: (§5) Total RNA was isolated from cells using the Direct-zol™ RNA MiniPrep kit (Zymo Research Corp., Irvine, California). cDNA was synthesized using TaqMan Reverse Transcription Reagents (Life technologies, Applera GmbH, Darmstadt, Germany) and the expression of 25 genes representative of phase I and phase II drug metabolism and transport was quantified by Fluidigm’s BioMark HD high-throughput quantitative chip platform (Fluidigm Corporation, San Francisco, USA). For relative gene expression analysis, the delta-delta-Ct (ΔΔCt) method was used: the Ct values of the target mRNA were first normalized to those of the endogenous control glyceraldehyde-3-phosphate dehydrogenase (GAPDH) followed by dividing values of experimental samples by their corresponding DMSO-treated controls to calculate the x-fold changes of mRNA expression.
In HLM and supersome™ incubations the formation rate is given as nmol µg^−1 min^−1 and fmol pmol^−1 min^−1, respectively, and was calculated as the mean ± SD. […] The intrinsic Clearance (Clint) was given as Vmax/Km ratio. […] In induction and inhibition experiments corresponding EC50 and IC50 values were calculated by nonlinear regression. […]
(§6) As control 0.05 % DMSO was used. The basal CYP activity and induction of CYP activity compared to the DMSO control were measured via HPLC-ESI-MS/MS.

CYP3A4 gene expression = CYP3A4 gene expression in upcyte hepatocytes (Fluidigm RT-PCR); conditions: 5 µM, 72 h, both cell strains
Source text: as §5
(§7) In HLM and supersome™ incubations the formation rate is given as nmol µg^−1 min^−1 and fmol pmol^−1 min^−1, respectively, and was calculated as the mean ± SD. […] The intrinsic Clearance (Clint) was given as Vmax/Km ratio. […] Activity of CYP enzymes in induction assays is given as the fold-change (mean ± SD) compared to the corresponding DMSO-treated control. […] Gene expression patterns of treated cells are given as fold-change compared to the corresponding DMSO-treated control samples, as described above. […] In induction and inhibition experiments corresponding EC50 and IC50 values were calculated by nonlinear regression. In all experiments a level of probability (p) ≤ 0.05 for statistical testing was considered significant.
as §6

[2] = system: CYP1A2, 2C19, 2C9, 2B6, 3A4 and 2C8; test: CYP activity in upcyte hepatocytes after treatment, all tested CYP isoenzymes together; type: cell-based, human; conditions: 5 µM, 72 h
Experimental: (§8) Cells were cultivated in hepatocyte culture medium at 37 °C and 5 °% CO2 in a humidified incubator. Before starting experiments, cells were cultivated in hepatocyte culture medium containing 0.5% (v/v) DMSO (Preculture medium) for 5 days (density of 0.8 × 10^4 cells/cm^2) and were subcultivated in high-performance medium containing 0.1% (v/v) DMSO (Metabolism conditioning medium) for 3–5 days (density of 1.6 × 10^5 cells/cm^2, confluence). The medium was replaced every 2–3 days.
as §7

CYP1A1 gene expression = CYP1A1 gene expression in upcyte hepatocytes (Fluidigm RT-PCR); type: cell-based, human; conditions: 5 µM, 72 h, both cell strains
Source text: (§9) Differences between induced and control samples were compared using Welch’s t-test (GraphPad Prism, version 5.04), when the fold-change was considered biologically relevant (1.5-fold increase or decrease in fold-changes) and corrected for multiple testing according to Bonferroni. […] An unpaired t-test assuming unequal variances was used for testing of differences in the expression patterns, when the fold-change was considered biologically relevant (1.5-fold increase or decrease in fold-changes) and corrected using Bonferroni adjustments.

CYP2C19 = CYP2C19 (Homo sapiens, UniProt P33261); test: CYP2C19 activity in upcyte hepatocytes after treatment (probe substrate cocktail); type: cell-based; design: host or cells: upcyte hepatocytes 653-03 and 653-03 #138 (653-03 2D6); conditions: upcyte hepatocytes, 72 h, 50 pM to 5 µM; read-out: EC50 of induction of CYP2C19 activity
Experimental: as §8, §7, §6

CYP2C9 = CYP2C9 (Homo sapiens, UniProt P11712); test: CYP2C9 activity in upcyte hepatocytes after treatment (probe substrate cocktail); type: cell-based; design: host or cells: upcyte hepatocytes 653-03 and 653-03 #138 (653-03 2D6); conditions: upcyte hepatocytes, 72 h, 50 pM to 5 µM; read-out: EC50 of induction of CYP2C9 activity
Experimental: as §8, §7, §6

SLC10A1 gene expression = SLC10A1 gene expression in upcyte hepatocytes (Fluidigm RT-PCR); type: cell-based, human; conditions: 5 µM, 72 h, both cell strains
Source text: as §9

CYP2B6 = CYP2B6 activity in upcyte hepatocytes after treatment (probe substrate cocktail); conditions: human, probe bupropion (25 µM)
Experimental: as §8, §7, §6

CYP1A2 = CYP1A2 activity in upcyte hepatocytes after treatment (probe substrate cocktail)
Experimental: as §8, §7, §6

CYP2C8 = biological target: T1, CYP2C8 (Homo sapiens, UniProt P10632); test: CYP2C8 activity in upcyte hepatocytes after treatment (probe substrate cocktail); type: cell-based; design: host or cells: upcyte hepatocytes 653-03 and 653-03 #138 (653-03 2D6); conditions: upcyte hepatocytes, 72 h, 50 pM to 5 µM; read-out: EC50 of induction of CYP2C8 activity
T1 sequence (P10632 1-490): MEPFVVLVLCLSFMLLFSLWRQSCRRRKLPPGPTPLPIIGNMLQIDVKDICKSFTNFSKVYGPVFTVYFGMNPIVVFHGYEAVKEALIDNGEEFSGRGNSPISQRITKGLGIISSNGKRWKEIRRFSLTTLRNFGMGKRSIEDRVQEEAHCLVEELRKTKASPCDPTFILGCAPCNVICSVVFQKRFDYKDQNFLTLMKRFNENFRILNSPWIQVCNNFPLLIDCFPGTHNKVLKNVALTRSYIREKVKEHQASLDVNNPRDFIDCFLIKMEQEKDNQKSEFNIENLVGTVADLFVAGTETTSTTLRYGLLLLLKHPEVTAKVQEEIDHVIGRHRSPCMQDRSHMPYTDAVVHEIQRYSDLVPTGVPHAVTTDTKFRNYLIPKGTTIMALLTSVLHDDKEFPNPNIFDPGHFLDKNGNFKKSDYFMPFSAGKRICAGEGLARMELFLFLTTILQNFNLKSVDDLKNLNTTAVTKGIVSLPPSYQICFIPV
Experimental: as §8, §7, §6

estrogen receptor = system: estrogen receptor; design: method as in Johnson et al. [1989]; Murphy et al. [1990]; conditions: in vitro, estrogen-dependent breast cancer cell lines; ref Johnson et al. [1989]; Murphy et al. [1990]; cited from earlier work
ABCG2 gene expression = ABCG2 gene expression in upcyte hepatocytes (Fluidigm RT-PCR); type: cell-based, human; conditions: 5 µM, 72 h, both cell strains
Source text: as §9

CYP3A4 = CYP3A4 activity in upcyte hepatocytes after treatment (probe substrate cocktail); conditions: human, probe atorvastatin (35 µM), EC50 of induction of CYP3A4 activity, upcyte hepatocytes, 72 h, 50 pM to 5 µM
Experimental: as §8, §7, §6

[3] = system: upcyte hepatocytes 653-03 2D6; test: Tam metabolism in upcyte hepatocytes 653-03 2D6, metabolites in culture medium; type: in vitro ADME, human
Experimental: as §1, §2, §3, §4

CYP2C9, sequence (P11712 whole entry): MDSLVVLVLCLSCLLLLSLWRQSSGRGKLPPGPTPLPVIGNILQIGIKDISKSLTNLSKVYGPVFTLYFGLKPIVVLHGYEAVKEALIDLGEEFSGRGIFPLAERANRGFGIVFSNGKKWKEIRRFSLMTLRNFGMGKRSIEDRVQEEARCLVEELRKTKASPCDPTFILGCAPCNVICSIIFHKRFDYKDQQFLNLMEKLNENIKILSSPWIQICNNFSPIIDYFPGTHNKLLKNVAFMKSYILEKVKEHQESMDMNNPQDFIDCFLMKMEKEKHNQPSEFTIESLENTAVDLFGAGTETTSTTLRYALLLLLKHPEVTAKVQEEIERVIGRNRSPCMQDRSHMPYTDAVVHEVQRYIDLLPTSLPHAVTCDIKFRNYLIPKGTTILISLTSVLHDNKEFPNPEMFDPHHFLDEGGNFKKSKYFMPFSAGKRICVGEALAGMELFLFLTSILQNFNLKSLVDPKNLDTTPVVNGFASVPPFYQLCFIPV
CYP2C19, sequence (P33261 whole entry): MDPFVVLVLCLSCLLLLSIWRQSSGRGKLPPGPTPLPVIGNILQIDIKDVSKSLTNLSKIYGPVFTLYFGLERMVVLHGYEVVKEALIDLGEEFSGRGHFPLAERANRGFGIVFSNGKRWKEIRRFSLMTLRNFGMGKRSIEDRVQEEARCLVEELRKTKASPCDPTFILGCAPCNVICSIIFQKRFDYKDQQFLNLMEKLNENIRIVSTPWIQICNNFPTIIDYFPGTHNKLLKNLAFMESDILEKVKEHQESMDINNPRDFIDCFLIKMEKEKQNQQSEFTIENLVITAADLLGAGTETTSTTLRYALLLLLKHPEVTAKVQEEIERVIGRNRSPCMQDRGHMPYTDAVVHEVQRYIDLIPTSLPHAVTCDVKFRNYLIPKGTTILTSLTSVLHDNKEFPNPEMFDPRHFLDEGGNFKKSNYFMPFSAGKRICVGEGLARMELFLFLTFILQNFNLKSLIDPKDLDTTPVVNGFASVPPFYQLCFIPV

CCC(=C(c1ccc(O)cc1)c1ccc(O)cc1)c1ccccc1 [Tam-Bis, 4-[1-(4-hydroxyphenyl)-2-phenylbut-1-en-1-yl]phenol]
concentration in the supernatant [1]: 0.0306 nM
SLC22A7 gene expression, fold lower than DMSO control (SLC22A7 gene expression): up to 2.5 fold
CYP3A4 gene expression, induction vs DMSO control (CYP3A4 gene expression): up to 4.5 fold
CYP3A4 gene expression, induction vs DMSO control (CYP3A4 gene expression; listed as tamoxifen bisphenol): up to 5.6 fold
inhibitory effect on the tested CYP enzymes [2]: no inhibitory effect
CYP1A1 gene expression, induction vs DMSO control (CYP1A1 gene expression): up to 4.5 fold
pEC50 (CYP2C19): 7.52
pEC50 (CYP2C9): 6.31
SLC10A1 gene expression, downregulation (fold lower) (SLC10A1 gene expression): up to 2.5 fold
EC50 at 72 h (CYP2B6): 0.187 µM
EC50 at 72 h (CYP1A2; human, EC50 of induction of CYP1A2 activity, 50 pM to 5 µM): > 0.4 µM
pEC50 (CYP1A2; read-out: EC50 of induction of CYP1A2 activity, 72 h, 50 pM to 5 µM): 6.29
pEC50 (CYP2C8): 6.40
agonism regarding estrogen-regulated mRNA expression (estrogen receptor): full agonists
ABCG2 gene expression, induction vs DMSO control (ABCG2 gene expression): up to 4.5 fold
EC50 at 72 h (CYP3A4): 0.178 µM
concentration in the supernatant ([3]; 1 µM Tam, 653-03 2D6 cells): up to 87.5 pM
concentration in the supernatant of 653-03 2D6 cells relative to parental cells ([3]; cells incubated with 1 µM Tam up to 144 h): up to 4 times
